Test results taken from ChEMBL document CHEMBL5442219.

Assays:
Conditions in all cases: Compound concentration 10 µM
[1] = biological target: Translocator protein (Homo sapiens) (UniProt P30536)
Description: PDSP Primary Binding target: TSPO - Compounds are tested at 10 uM concentration, plate are incubated at room temperature in the dark for 90 minutes. Reaction are stopped by vacuum filtration onto 0.3% polyethyleneimine soaked filter mats using Filtermate harvester. Scintilation cocktail is then melted onto microwave-dried filters on a hot plate and the radio activity is counted in Microbia counter.

[2] = biological target: Kappa-type opioid receptor (Homo sapiens) (UniProt P41145)
Description: PDSP Primary Binding target: OPRK1 - Compounds are tested at 10 uM concentration, plate are incubated at room temperature in the dark for 90 minutes. Reaction are stopped by vacuum filtration onto 0.3% polyethyleneimine soaked filter mats using Filtermate harvester. Scintilation cocktail is then melted onto microwave-dried filters on a hot plate and the radio activity is counted in Microbia counter.

[3] = biological target: Beta-2 adrenergic receptor (Homo sapiens) (UniProt P07550)
Description: PDSP Primary Binding target: ADRB2 - Compounds are tested at 10 uM concentration, plate are incubated at room temperature in the dark for 90 minutes. Reaction are stopped by vacuum filtration onto 0.3% polyethyleneimine soaked filter mats using Filtermate harvester. Scintilation cocktail is then melted onto microwave-dried filters on a hot plate and the radio activity is counted in Microbia counter.

[4] = biological target: T1, D(4) dopamine receptor (Homo sapiens) (UniProt P21917)
T1 sequence (whole entry): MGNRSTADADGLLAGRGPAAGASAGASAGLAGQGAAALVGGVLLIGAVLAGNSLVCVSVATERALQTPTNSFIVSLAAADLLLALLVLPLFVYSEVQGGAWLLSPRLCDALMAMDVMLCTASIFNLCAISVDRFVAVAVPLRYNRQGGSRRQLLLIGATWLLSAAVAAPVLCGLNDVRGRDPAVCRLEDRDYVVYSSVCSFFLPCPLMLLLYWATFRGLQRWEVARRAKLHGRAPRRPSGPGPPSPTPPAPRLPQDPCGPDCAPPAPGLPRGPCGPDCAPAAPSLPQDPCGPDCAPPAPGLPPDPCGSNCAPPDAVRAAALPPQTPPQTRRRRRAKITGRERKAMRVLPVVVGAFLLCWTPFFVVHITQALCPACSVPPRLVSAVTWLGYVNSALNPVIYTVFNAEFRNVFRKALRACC
Description: PDSP Primary Binding target: DRD4 - Compounds are tested at 10 uM concentration, plate are incubated at room temperature in the dark for 90 minutes. Reaction are stopped by vacuum filtration onto 0.3% polyethyleneimine soaked filter mats using Filtermate harvester. Scintilation cocktail is then melted onto microwave-dried filters on a hot plate and the radio activity is counted in Microbia counter.

[5] = biological target: T2, Alpha-1A adrenergic receptor (Homo sapiens) (UniProt P35348)
T2 sequence (whole entry): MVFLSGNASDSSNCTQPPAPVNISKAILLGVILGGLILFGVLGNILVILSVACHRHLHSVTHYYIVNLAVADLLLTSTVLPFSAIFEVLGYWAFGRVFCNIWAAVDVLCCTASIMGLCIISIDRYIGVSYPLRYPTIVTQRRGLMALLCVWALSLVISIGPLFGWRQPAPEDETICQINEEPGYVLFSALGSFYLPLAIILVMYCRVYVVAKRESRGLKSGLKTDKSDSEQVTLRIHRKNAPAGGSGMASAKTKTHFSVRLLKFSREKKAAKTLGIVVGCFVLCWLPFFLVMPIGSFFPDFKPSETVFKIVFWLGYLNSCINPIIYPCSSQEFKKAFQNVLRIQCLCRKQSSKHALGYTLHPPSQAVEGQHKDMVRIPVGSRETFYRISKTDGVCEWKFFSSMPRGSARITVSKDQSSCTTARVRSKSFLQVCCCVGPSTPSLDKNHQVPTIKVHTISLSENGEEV
Description: PDSP Primary Binding target: ADRA1A - Compounds are tested at 10 uM concentration, plate are incubated at room temperature in the dark for 90 minutes. Reaction are stopped by vacuum filtration onto 0.3% polyethyleneimine soaked filter mats using Filtermate harvester. Scintilation cocktail is then melted onto microwave-dried filters on a hot plate and the radio activity is counted in Microbia counter.

[6] = biological target: 5-hydroxytryptamine receptor 1B (Homo sapiens) (UniProt P28222)
Sequence of 5-hydroxytryptamine receptor 1B (Homo sapiens) (P28222 whole entry): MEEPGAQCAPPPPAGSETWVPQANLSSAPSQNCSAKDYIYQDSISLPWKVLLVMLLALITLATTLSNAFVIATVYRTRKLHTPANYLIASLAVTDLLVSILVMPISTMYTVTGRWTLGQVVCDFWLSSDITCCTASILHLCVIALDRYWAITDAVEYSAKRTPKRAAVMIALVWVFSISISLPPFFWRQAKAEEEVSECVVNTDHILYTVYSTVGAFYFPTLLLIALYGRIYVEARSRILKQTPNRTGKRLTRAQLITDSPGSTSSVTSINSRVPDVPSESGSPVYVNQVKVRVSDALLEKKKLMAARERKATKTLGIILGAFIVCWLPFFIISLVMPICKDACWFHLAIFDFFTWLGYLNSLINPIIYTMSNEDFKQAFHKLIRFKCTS
Description: PDSP Primary Binding target: HTR1B - Compounds are tested at 10 uM concentration, plate are incubated at room temperature in the dark for 90 minutes. Reaction are stopped by vacuum filtration onto 0.3% polyethyleneimine soaked filter mats using Filtermate harvester. Scintilation cocktail is then melted onto microwave-dried filters on a hot plate and the radio activity is counted in Microbia counter.

[7] = biological target: Beta-1 adrenergic receptor (Homo sapiens) (UniProt P08588)
Sequence of Beta-1 adrenergic receptor (Homo sapiens) (P08588 whole entry, looked up): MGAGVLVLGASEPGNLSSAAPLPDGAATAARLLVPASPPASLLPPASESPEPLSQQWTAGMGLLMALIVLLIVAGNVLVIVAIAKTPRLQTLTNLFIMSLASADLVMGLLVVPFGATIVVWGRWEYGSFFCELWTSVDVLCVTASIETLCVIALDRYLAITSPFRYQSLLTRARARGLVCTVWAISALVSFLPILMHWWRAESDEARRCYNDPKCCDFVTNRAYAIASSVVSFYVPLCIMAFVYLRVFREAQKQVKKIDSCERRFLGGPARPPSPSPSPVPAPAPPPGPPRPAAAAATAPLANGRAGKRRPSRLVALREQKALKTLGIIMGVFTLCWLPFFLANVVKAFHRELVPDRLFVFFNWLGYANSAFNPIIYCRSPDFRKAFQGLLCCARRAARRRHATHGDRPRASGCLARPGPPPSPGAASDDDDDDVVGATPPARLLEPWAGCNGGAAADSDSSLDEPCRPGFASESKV
Description: PDSP Primary Binding target: ADRB1 - Compounds are tested at 10 uM concentration, plate are incubated at room temperature in the dark for 90 minutes. Reaction are stopped by vacuum filtration onto 0.3% polyethyleneimine soaked filter mats using Filtermate harvester. Scintilation cocktail is then melted onto microwave-dried filters on a hot plate and the radio activity is counted in Microbia counter.

[8] = biological target: D(2) dopamine receptor (Homo sapiens) (UniProt P14416)
Sequence of D(2) dopamine receptor (Homo sapiens) (P14416 whole entry): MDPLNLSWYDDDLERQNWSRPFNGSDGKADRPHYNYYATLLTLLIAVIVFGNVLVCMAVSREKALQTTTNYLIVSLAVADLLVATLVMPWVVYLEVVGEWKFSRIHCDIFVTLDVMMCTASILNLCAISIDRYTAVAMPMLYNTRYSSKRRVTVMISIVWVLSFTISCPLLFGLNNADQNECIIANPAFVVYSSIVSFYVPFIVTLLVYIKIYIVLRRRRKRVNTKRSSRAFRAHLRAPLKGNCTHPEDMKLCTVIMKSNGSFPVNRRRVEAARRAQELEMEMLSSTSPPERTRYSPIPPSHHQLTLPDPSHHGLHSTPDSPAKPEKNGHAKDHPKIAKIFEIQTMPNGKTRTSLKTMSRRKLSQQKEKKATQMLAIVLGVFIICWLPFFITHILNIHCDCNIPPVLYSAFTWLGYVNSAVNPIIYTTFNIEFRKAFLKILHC
Description: PDSP Primary Binding target: DRD2 - Compounds are tested at 10 uM concentration, plate are incubated at room temperature in the dark for 90 minutes. Reaction are stopped by vacuum filtration onto 0.3% polyethyleneimine soaked filter mats using Filtermate harvester. Scintilation cocktail is then melted onto microwave-dried filters on a hot plate and the radio activity is counted in Microbia counter.

[9] = biological target: T3, Muscarinic acetylcholine receptor M4 (Homo sapiens) (UniProt P08173)
T3 sequence (whole entry): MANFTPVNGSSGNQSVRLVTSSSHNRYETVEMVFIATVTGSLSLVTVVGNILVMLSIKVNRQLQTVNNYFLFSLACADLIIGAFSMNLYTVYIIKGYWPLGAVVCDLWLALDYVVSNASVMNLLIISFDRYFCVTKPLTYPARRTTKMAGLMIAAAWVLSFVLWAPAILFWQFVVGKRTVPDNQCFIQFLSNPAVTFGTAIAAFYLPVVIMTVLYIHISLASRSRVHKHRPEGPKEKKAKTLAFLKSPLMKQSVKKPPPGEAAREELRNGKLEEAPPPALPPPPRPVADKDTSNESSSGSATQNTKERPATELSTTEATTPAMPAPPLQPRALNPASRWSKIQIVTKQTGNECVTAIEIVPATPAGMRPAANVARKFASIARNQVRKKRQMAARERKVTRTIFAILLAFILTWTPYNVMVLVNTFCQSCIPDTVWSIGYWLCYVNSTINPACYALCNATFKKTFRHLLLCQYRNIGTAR
Description: PDSP Primary Binding target: CHRM4 - Compounds are tested at 10 uM concentration, plate are incubated at room temperature in the dark for 90 minutes. Reaction are stopped by vacuum filtration onto 0.3% polyethyleneimine soaked filter mats using Filtermate harvester. Scintilation cocktail is then melted onto microwave-dried filters on a hot plate and the radio activity is counted in Microbia counter.

[10] = biological target: 5-hydroxytryptamine receptor 1E (Homo sapiens) (UniProt P28566)
Sequence of 5-hydroxytryptamine receptor 1E (Homo sapiens) (P28566 whole entry): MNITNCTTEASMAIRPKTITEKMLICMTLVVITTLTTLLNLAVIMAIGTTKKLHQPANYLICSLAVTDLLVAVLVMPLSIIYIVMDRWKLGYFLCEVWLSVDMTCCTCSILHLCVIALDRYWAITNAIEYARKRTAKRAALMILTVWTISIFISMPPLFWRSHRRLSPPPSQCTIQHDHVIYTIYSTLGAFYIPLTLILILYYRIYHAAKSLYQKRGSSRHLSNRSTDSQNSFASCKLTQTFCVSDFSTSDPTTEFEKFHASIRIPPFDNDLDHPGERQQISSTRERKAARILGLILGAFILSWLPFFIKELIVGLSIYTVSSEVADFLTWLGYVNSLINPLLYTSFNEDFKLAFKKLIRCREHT
Description: PDSP Primary Binding target: HTR1E - Compounds are tested at 10 uM concentration, plate are incubated at room temperature in the dark for 90 minutes. Reaction are stopped by vacuum filtration onto 0.3% polyethyleneimine soaked filter mats using Filtermate harvester. Scintilation cocktail is then melted onto microwave-dried filters on a hot plate and the radio activity is counted in Microbia counter.

[11] = biological target: D(1A) dopamine receptor (Homo sapiens) (UniProt P21728)
Sequence of D(1A) dopamine receptor (Homo sapiens) (P21728 whole entry): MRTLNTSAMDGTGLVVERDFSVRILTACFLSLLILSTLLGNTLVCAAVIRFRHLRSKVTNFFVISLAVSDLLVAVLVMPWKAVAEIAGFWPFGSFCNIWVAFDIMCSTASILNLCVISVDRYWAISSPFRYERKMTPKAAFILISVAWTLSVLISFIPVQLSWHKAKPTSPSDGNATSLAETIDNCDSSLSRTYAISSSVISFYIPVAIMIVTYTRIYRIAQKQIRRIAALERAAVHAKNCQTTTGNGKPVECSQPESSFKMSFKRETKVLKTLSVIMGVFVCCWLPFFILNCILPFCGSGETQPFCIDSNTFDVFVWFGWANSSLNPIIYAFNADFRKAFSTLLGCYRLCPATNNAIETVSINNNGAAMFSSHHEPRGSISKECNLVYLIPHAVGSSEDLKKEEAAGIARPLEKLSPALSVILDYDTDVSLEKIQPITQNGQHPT
Description: PDSP Primary Binding target: DRD1 - Compounds are tested at 10 uM concentration, plate are incubated at room temperature in the dark for 90 minutes. Reaction are stopped by vacuum filtration onto 0.3% polyethyleneimine soaked filter mats using Filtermate harvester. Scintilation cocktail is then melted onto microwave-dried filters on a hot plate and the radio activity is counted in Microbia counter.

[12] = biological target: 5-hydroxytryptamine receptor 6 (Homo sapiens) (UniProt P50406)
Sequence of 5-hydroxytryptamine receptor 6 (Homo sapiens) (P50406 whole entry): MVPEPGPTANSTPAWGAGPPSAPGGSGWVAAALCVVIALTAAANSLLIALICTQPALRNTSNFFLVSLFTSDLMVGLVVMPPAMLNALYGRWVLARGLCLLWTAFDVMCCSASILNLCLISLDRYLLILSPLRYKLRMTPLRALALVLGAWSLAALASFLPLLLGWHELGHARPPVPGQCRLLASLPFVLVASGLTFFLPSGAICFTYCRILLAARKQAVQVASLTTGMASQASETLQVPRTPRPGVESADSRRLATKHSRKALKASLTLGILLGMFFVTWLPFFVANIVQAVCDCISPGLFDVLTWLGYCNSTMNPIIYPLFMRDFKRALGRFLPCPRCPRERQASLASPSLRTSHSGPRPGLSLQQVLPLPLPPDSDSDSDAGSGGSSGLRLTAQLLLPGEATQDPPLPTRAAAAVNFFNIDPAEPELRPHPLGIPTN
Description: PDSP Primary Binding target: HTR6 - Compounds are tested at 10 uM concentration, plate are incubated at room temperature in the dark for 90 minutes. Reaction are stopped by vacuum filtration onto 0.3% polyethyleneimine soaked filter mats using Filtermate harvester. Scintilation cocktail is then melted onto microwave-dried filters on a hot plate and the radio activity is counted in Microbia counter.

[13] = biological target: 5-hydroxytryptamine receptor 5A (Homo sapiens) (UniProt P47898)
Sequence of 5-hydroxytryptamine receptor 5A (Homo sapiens) (P47898 whole entry): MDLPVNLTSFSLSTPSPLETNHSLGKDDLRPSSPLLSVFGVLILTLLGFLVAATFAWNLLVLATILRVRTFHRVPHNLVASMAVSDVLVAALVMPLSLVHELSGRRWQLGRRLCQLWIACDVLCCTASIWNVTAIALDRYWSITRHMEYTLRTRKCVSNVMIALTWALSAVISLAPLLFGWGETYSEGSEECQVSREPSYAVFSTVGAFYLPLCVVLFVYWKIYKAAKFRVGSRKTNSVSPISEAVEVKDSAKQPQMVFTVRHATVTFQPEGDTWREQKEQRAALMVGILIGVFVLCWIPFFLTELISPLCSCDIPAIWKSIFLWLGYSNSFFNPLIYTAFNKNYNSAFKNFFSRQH
Description: PDSP Primary Binding target: HTR5A - Compounds are tested at 10 uM concentration, plate are incubated at room temperature in the dark for 90 minutes. Reaction are stopped by vacuum filtration onto 0.3% polyethyleneimine soaked filter mats using Filtermate harvester. Scintilation cocktail is then melted onto microwave-dried filters on a hot plate and the radio activity is counted in Microbia counter.

[14] = biological target: Sodium-dependent dopamine transporter (Homo sapiens) (UniProt Q01959)
Sequence of Sodium-dependent dopamine transporter (Homo sapiens) (Q01959 whole entry): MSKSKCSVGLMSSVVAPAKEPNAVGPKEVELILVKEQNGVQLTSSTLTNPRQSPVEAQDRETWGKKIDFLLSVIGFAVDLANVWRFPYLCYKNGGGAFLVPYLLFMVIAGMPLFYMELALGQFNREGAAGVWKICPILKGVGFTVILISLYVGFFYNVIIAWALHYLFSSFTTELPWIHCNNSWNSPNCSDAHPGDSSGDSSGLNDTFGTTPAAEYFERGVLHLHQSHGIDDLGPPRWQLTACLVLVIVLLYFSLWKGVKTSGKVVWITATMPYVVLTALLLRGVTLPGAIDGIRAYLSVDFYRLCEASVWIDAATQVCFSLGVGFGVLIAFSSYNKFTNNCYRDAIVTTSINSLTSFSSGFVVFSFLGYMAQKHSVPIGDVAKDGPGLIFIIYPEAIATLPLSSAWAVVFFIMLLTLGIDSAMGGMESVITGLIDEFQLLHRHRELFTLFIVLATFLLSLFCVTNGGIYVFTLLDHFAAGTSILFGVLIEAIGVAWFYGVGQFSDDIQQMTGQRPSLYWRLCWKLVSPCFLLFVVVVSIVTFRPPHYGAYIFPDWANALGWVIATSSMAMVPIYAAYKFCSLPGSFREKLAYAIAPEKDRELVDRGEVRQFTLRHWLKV
Description: PDSP Primary Binding target: SLC6A3 - Compounds are tested at 10 uM concentration, plate are incubated at room temperature in the dark for 90 minutes. Reaction are stopped by vacuum filtration onto 0.3% polyethyleneimine soaked filter mats using Filtermate harvester. Scintilation cocktail is then melted onto microwave-dried filters on a hot plate and the radio activity is counted in Microbia counter.

[15] = biological target: T4, Alpha-2B adrenergic receptor (Homo sapiens) (UniProt P18089)
T4 sequence (whole entry): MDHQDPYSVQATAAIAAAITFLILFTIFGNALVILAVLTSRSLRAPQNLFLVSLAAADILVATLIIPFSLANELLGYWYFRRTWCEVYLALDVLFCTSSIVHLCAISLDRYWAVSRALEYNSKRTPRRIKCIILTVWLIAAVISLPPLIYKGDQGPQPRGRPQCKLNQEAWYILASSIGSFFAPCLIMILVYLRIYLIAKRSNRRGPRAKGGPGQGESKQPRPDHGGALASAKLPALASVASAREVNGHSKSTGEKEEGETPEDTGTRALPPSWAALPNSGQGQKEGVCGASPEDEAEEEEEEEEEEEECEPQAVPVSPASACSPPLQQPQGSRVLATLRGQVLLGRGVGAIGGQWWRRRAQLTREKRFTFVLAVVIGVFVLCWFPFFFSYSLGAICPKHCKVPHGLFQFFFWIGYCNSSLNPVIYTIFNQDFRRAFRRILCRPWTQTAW
Description: PDSP Primary Binding target: ADRA2B - Compounds are tested at 10 uM concentration, plate are incubated at room temperature in the dark for 90 minutes. Reaction are stopped by vacuum filtration onto 0.3% polyethyleneimine soaked filter mats using Filtermate harvester. Scintilation cocktail is then melted onto microwave-dried filters on a hot plate and the radio activity is counted in Microbia counter.

[16] = biological target: T5, 5-hydroxytryptamine receptor 1A (Homo sapiens) (UniProt P08908)
T5 sequence (whole entry): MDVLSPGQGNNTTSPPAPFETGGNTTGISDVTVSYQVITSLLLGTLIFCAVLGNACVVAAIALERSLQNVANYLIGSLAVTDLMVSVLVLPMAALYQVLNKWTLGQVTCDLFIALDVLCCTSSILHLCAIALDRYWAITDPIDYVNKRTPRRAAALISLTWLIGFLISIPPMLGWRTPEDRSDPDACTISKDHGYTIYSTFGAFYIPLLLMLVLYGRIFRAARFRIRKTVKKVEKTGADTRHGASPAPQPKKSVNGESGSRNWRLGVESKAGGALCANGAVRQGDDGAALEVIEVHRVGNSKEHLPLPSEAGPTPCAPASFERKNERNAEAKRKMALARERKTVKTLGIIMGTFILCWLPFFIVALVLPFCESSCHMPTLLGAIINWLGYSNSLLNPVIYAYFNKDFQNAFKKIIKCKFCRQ
Description: PDSP Primary Binding target: HTR1A - Compounds are tested at 10 uM concentration, plate are incubated at room temperature in the dark for 90 minutes. Reaction are stopped by vacuum filtration onto 0.3% polyethyleneimine soaked filter mats using Filtermate harvester. Scintilation cocktail is then melted onto microwave-dried filters on a hot plate and the radio activity is counted in Microbia counter.

Sequence of Kappa-type opioid receptor (Homo sapiens) (P41145 whole entry): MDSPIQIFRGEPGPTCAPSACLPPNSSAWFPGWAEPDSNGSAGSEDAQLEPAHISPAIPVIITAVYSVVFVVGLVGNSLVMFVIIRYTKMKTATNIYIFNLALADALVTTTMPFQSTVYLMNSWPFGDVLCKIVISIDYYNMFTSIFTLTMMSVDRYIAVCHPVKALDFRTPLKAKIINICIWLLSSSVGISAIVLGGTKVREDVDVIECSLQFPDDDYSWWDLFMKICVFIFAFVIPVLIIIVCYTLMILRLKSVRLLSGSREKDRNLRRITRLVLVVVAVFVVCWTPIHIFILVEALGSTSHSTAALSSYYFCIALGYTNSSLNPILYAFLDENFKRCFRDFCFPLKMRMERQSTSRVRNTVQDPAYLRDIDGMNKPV
Sequence of Translocator protein (Homo sapiens) (P30536 whole entry): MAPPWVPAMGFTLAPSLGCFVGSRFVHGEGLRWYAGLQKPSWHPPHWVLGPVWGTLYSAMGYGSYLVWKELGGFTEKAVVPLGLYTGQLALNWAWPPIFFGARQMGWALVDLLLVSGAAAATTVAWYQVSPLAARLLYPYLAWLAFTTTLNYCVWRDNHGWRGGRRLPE
Sequence of Beta-2 adrenergic receptor (Homo sapiens) (P07550 whole entry, looked up): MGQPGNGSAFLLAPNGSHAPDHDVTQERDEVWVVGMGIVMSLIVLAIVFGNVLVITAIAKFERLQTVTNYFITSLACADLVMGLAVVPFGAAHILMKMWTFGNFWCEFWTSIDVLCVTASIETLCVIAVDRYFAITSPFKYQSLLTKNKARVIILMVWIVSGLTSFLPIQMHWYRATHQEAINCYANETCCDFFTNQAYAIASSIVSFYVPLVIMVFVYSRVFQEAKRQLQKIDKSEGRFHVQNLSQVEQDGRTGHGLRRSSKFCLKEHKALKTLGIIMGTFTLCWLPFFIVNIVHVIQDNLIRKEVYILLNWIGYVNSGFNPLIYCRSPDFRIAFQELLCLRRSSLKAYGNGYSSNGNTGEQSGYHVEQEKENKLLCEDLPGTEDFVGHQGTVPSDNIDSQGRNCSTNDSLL

Row | Compound | inhibition [1] [%] | inhibition [2] [%] | inhibition [3] [%] | inhibition [4] [%] | inhibition [5] [%] | inhibition [6] [%] | inhibition [7] [%] | inhibition [8] [%] | inhibition [9] [%] | inhibition [10] [%] | inhibition [11] [%] | inhibition [12] [%] | inhibition [13] [%] | inhibition [14] [%] | inhibition [15] [%] | inhibition [16] [%]
1 | Cc1nc2sccn2c(=O)c1CCN1CCC(=C(c2ccc(F)cc2)c2ccc(F)cc2)CC1 | 31.2 | 65.8 | 1.44 | 82.1 | 96.8 | 96 | 19 | 95.4 | 1.18 | 80.8 | 99.5 | 98.1 | 94 | 68.9 | 84 | 30.5
2 | NC[C@@H]1O[C@H](C23CC4CC(CC(C4)C2)C3)Cc2c1ccc(O)c2O | -5.61 | 12.2 | 29.6 | 83.8 | -1.53 | 22.6 | -6.91 | 21.6 | 8.08 | 22.3 | 100 | 19.1 | 20.1 | 68.4 | 64.3 | 14.3
3 | N#Cc1ccc2[nH]cc(CCCCN3CCN(c4ccc5oc(C(N)=O)cc5c4)CC3)c2c1 | -4.35 | 30.6 | 56.2 | 80.5 | 95.5 | 56.1 | 11.6 | 79.4 | 5.32 | 21.2 | 22.6 | 30.3 | 40.6 | 99.5 | 47.1 | 102
